Data set [1] relates to sunburns. As to conditions: cited from earlier work; for SPF equivalent: topical application, background section, no trial described.
Data set [2] has as its system photo ageing. Nature of the data set: Example 2: side effects in patients treated for photo ageing, topical tretinoin versus formulations of the invention. The class given is in vivo, human. An excerpt: In a trial conducted by a practicing dermatologist, involving 267 patients undergoing treatment for photo ageing using slowly increasing strengths of topical tretinoin, side effects were frequent and prolonged. An average of 3.7 reactions sufficiently severe to cause discontinuation of therapy were experienced and each reaction required discontinuation of treatment for an average of 7.7 days. Only 14% of patients were able to be treated without side effects at the commercially available strength of 0.1% tretinoin. […] The side effects were mild and were ameliorated by re-introducing the regime as alternate day treatment in the areas of irritation. Only 1.5% of patients were unable to tolerate the regime.

Data set [3] concerns photo aging. In words: open label proof of concept trials over 5 years in 300 patients, reversal of photo aging. The class given is in vivo, human. An excerpt:
Animal models have an inherent limitation and are not necessarily directly applicable to humans. For example, various mammalian species have different metabolic characteristics. In particularly, most animals have the capacity to manufacture their own vitamin C.
Indeed, the studies appear to indicate a synergetic effect between vitamins C and E in the morning, and vitamins A and E in the evening.

Data set [4] deals with sunburns. In words: ability to prevent sunburns (SPF equivalent) after topical application. The class given is in vivo, human. The source says: Each of the three vitamins A, C and E, and complexes thereof, when topically applied individually at therapeutic levels, markedly increases the ability of the skin to absorb free radicals. Each vitamin molecule, as a measurement of this effect, adds the ability to absorb 2 MEDs (minimal erythema dose) of energy or a total of 6 MEDS if all three vitamins are present simultaneously. […] SPF (Sun Protection Factor) is a recognized measure of ultraviolet screen ability. Simultaneous application of a tri-vitamin regimen of vitamins A, C and E can result in an SPF equivalent of 24. Use of the three vitamins together in effective amounts results in enhanced protection of the skin against sunburn and, unlike sunscreens per se, persists in effect until the molecules are consumed by the body. […] The enhancement of photo protection by the tri-vitamin therapy according to the invention is particularly important as a solar spectrum (UVA, UVB) sun protectant. The effects of simultaneous use of the tri-vitamin regime and sunscreens are additive.
One measure of the activity has been to assess the ability to prevent sunburns.

In data set [5] the test system is sunburns. In words: Example 4: UVB sunburn study in 34 volunteers, test compounds applied before or after 1 or 3 MEDs of UVB. Type of data set: in vivo, human. As to conditions: for prevention of the development of sunburns: applied daily for 3 days before 1 or 3 MEDs of UVB; for treatment of the induced sunburns, review of the data of the left side: left side of the back. The method, then: In a study conducted by a practicing dermatologist, after informed consent, 34 volunteers were treated in the following manner. On the left side of the back, one inch squares were marked and treated daily for 3 days with 12 test compounds including a control of vehicle and a commercial identified sunscreen. After determining the MED (minimal erythema dose) for each subject, each subject was treated with one or 3 MEDs of UVB on both sides of the back. On the right side, 18 test compounds were applied including a vehicle control post sunburn at 0 hours, 8 hours, 24 and 48 hours. Measurements of the severity of the burns were recorded as the end point at 8, 24 and 48 hours.

For the molecule `CC1=C(/C=C/C(C)=C/C=C/C(C)=C/CO)C(C)(C)CCC1` [retinol], in data set [1], the SPF equivalent is recorded as 20.
With `CC1=C(/C=C/C(C)=C/C=C/C(C)=C/C(=O)O)C(C)(C)CCC1` [tretinoin, all-trans retinoic acid], in data set [2] (267 patients), the “average discontinuation of treatment per reaction” value was determined as 7.7 days. Moreover, the “average reactions sufficiently severe to cause discontinuation of therapy” value in data set [2] (267 patients, slowly increasing strengths) was determined as 3.7. Also, in data set [2] (at commercially available strength of 0.1%), the “patients able to be treated without side effects” value amounted to 14%.
`CCCCCCCCCCCCCCCC(=O)OC/C=C(C)/C=C/C=C(C)/C=C/C1=C(C)CCCC1(C)C` [vitamin A palmitate, retinyl palmitate]: the SPF equivalent in data set [1] is reported as 20. Further, the frequency of irritation result in data set [3] (compared with topical tretinoin) is reported as “markedly reduced frequency of irritation”.
For the molecule `O=C1O[C@H]([C@@H](O)CO)C(O)=C1O` [vitamin C, L-ascorbic acid], the effect on sunburn result in data set [4] is listed as “effective in reducing sunburns”. Moreover, in data set [5], the “prevention of the development of sunburns” value was “able to prevent the development of sunburns” and the “treatment of the induced sunburns, review of the data of the left side” value is reported as “significant visible improvement”. Also, in data set [1] (following a single application), the persistence of photoprotection entry was “at least 4 days”.
`Cc1c(C)c2c(c(C)c1O)CC[C@@](C)(CCC[C@H](C)CCC[C@H](C)CCCC(C)C)O2` [vitamin E, α-tocopherol]: in data set [4], the effect on sunburn result was “significantly ameliorated the signs and symptoms of sunburn”. Moreover, in data set [5], the “prevention of the development of sunburns” value is recorded as “able to prevent the development of sunburns” and the “treatment of the induced sunburns, review of the data of the left side” value is reported as “significant visible improvement”. For the same molecule, in data set [5] (applied post sunburn), the treatment of sunburns result was “statistically visible significant treatment benefit”. Moreover, the “clinical effect on photo aging” value in data set [3] (topical) is “enhance reversal of photo aging”.

Values taken from patent publication US20080057138A1, “RESTORATIVE SKIN CREAM” (Telford Holdings Ltd., priority 2006, published 2008).
